Data on twelve compounds can be found in patent publication US6632809B2, “Gyrase inhibitors and uses thereof” (Vertex Pharmaceuticals Incorporated, priority 2000, dated 2003).

For test [1], the target named is DNA gyrase (374 kDa Gyr A2B2 subunit from Staphylococcus aureus) (Staphylococcus aureus, UniProt P0A0K8). The test is described as follows: Gyrase ATPase Assay. Particulars: 10 μM concentration; ATPase assay at 30° C., 0.9 mM ATP; average of duplicate values; read-out: Gyrase Inhibitory Activity (percent inhibition). Type of test: biochemical. A digest of the protocol: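 S. aureus GyrA2B2 (40 nM) was preincubated 10 min at 30 °C with inhibitor (4% DMSO final) in 100 mM Tris pH 7.6, 1.5 mM MgCl2, 50 mM KCl. Reactions were started with 0.9 mM ATP, and ADP formation was followed via PK/LDH-coupled NADH loss at 340 nm over 10 min. Percent inhibition is the mean of duplicates.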
Chain of DNA gyrase (374 kDa Gyr A2B2 subunit from Staphylococcus aureus) (P0A0K8 whole entry): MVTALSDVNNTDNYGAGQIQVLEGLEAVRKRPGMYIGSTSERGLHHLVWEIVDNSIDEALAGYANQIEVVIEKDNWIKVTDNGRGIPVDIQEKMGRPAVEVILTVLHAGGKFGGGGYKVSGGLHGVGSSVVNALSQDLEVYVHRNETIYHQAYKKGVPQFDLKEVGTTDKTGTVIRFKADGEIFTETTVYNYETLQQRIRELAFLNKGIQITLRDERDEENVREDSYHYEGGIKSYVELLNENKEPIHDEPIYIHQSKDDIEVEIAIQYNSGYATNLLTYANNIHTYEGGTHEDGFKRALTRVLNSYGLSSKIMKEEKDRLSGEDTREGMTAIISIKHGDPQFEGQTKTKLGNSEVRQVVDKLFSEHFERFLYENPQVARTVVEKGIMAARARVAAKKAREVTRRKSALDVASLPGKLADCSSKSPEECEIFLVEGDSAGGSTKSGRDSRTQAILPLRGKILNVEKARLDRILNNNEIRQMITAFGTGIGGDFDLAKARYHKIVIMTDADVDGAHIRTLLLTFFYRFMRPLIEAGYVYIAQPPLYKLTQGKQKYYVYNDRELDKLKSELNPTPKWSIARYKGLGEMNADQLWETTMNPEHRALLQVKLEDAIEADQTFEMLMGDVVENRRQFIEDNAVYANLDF
Chain of DNA gyrase (374 kDa Gyr A2B2 subunit from Staphylococcus aureus) (P20831 whole entry, further chain): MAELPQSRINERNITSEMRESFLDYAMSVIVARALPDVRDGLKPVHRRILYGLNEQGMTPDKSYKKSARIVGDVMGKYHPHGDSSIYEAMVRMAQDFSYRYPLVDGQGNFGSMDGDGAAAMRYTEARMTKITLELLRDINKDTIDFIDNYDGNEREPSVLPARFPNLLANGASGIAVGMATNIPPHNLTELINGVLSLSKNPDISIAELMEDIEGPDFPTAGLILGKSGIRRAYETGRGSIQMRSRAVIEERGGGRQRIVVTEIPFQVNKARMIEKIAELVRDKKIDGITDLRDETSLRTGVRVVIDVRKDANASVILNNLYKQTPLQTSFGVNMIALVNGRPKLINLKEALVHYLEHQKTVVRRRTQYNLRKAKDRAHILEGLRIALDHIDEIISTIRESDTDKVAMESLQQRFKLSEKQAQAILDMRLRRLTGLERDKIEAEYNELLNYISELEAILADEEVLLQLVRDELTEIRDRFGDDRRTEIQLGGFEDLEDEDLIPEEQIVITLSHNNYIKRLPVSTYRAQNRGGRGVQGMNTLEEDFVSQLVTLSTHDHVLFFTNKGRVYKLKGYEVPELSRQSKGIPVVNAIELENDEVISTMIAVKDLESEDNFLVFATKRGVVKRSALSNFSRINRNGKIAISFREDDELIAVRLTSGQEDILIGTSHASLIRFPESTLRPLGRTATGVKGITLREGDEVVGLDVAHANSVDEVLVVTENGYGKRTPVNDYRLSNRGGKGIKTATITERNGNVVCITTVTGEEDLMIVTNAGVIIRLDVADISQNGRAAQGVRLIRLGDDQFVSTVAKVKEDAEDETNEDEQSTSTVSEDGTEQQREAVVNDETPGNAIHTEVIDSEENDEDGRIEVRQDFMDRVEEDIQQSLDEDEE

In test [2] the test system is test bacteria. In words: Susceptibility Testing in Liquid Media (MIC assay). Type of test: cell-based. As to conditions: broth dilution, MHB, 35° C. overnight (16 to 20 hr); organism not given; read-out: MIC (minimal inhibitory concentration) activity level. How it is done:
Susceptibility Testing in Liquid Media
Compounds of this invention were also tested for antimicrobial activity by susceptibility testing in liquid media. Such assays were performed within the guidelines of the latest NCCLS document governing such practices: “M7-A5 Methods for dilution Antimicrobial Susceptibility Tests for Bacteria that Grow Aerobically; Approved Standard—Fifth Edition (2000)”. Other publications such as “Antibiotics in Laboratory Medicine” (Edited by V. Lorian, Publishers Williams and Wilkins, 1996) provide essential practical techniques in laboratory antibiotic testing. Essentially, several discrete bacterial colonies (3 to 7) from a freshly streaked plate were transferred to an appropriate rich broth medium such as MHB, supplemented where appropriate for the more fastidious organisms. This was grown overnight to high density followed by a 1 or 2-thousand-fold dilution to give an inoculation density of between 5×10^5 and 5×10^6 CFU per mL. Alternatively, the freshly picked colonies can be incubated at 37° C. for about 4 to 8 hrs until the culture equals or exceeds a turbidity of a 0.5 McFarland standard (approximately 1.5×10^8 cells per mL) and diluted to give the same CFU per mL as above. In a more convenient method, the inoculum was prepared using a commercially available mechanical device (the BBL PROMPT System) that involves touching five colonies directly with a wand, containing crosshatch grooves at its bottom, followed by suspension of the bacteria in an appropriate volume of saline. Dilution to the appropriate inoculum cell density was made from this cell suspension. The broth used for testing consists of MHB supplemented with 50 mg per L of Ca^2+ and 25 mg per L of Mg^2+. Standard dilution panels of control antibiotics were made and stored as in the NCCLS standard M7-A5, the dilution range typically being in the 128 μg per mL to 0.015 μg per mL (by 2-fold serial dilution). The test compounds were dissolved and diluted fresh for experimentation on the same day; the same or similar ranges of concentration as above being used. The test compounds and controls were dispensed into a multiwell plate and test bacteria added such that the final inoculation was approximately 5×10^4 CFU per well and the final volume was 100 μL. The plates were incubated at 35° C. overnight (16 to 20 hr) and checked by eye for turbidity or quantitated with a multiwell plate reader. […] Such determinations were also compared to the appropriate tables contained in the above two publications to ensure that the range of antibacterial activity is within the acceptable range for this standardized assay.
The compound numbers correspond to the compound numbers in Table 1.
(Broth dilution looks for growth in wells or tubes with falling amounts of substance.)

≈ marks a conversion by molar mass, not a printed value.

As for `CCNC(=O)Nc1nc2cc(-c3ccc(N4CCCC4)nc3)ccc2[nH]1` [Ia-177], the inhibition at 10 µM in test [1] was greater than 75%. Also, the MIC in test [2] is greater than 40 µg/mL.
Taken in the same sequence, the figures for `CCNC(=O)Nc1nc2cc(-c3cccnc3)c(N3CCCCC3)cc2[nH]1` [Ia-178] were greater than 75% and less than 10 µg/mL.
Take `CCNC(=O)Nc1nc2cc(-c3ccc(N4CCC(O)C4)nc3)ccc2[nH]1` (stereo not drawn) [Ia-179]: the inhibition at 10 µM in test [1] is greater than 75%. Besides, the MIC in test [2] was greater than 40 µg/mL.
Taken in the same sequence, the figures for `CCNC(=O)Nc1nc2cc(-c3cccnc3)c(N3CCCC3)cc2[nH]1` [Ia-180] were greater than 75% and 10 to 40 µg/mL (≈ 28.5 to 114 µM).
Consider `CCNC(=O)Nc1nc2cc(-c3occc(=O)c3O)ccc2[nH]1` [Ia-181], for which the inhibition at 10 µM in test [1] fell in the range of 50 to 75%. The MIC in test [2] was greater than 40 µg/mL.
Taken in the same sequence, the figures for `C=CCCCOc1ccc(-c2ccc3[nH]c(NC(=O)NCC)nc3c2)cn1` [Ia-182] were greater than 75% and greater than 40 µg/mL.
For `CCNC(=O)Nc1nc2cc(-c3cccnc3)c(OC)c(F)c2[nH]1` [Ia-183] the same measures were 50 to 75% and greater than 40 µg/mL.
Taken in the same sequence, the figures for `CCNC(=O)Nc1nc2nc(-n3cnc(C(=O)OC)c3)ccc2[nH]1` [Ia-184] were 50 to 75% and greater than 40 µg/mL.
Regarding `CCNC(=O)Nc1nc2nc(-n3cnc(C(=O)O)c3)ccc2[nH]1` [Ia-185], the inhibition at 10 µM in test [1] is greater than 75%. Also, in test [2], the MIC is greater than 40 µg/mL.
For `CCCCNC(=O)c1cn(-c2ccc3[nH]c(NC(=O)NCC)nc3c2)cn1` [Ia-186] the same measures were greater than 75% and less than 10 µg/mL.
For `CCNC(=O)Nc1nc2nc(-n3cnc(C(=O)NC4CC4)c3)ccc2[nH]1` [Ia-187] the same measures were greater than 75% and 10 to 40 µg/mL (≈ 28.2 to 113 µM).
As for `C=CCNC(=O)c1cn(-c2ccc3[nH]c(NC(=O)NCC)nc3c2)cn1` [Ia-188], in test [1], the inhibition at 10 µM is greater than 75%. The MIC in test [2] was less than 10 µg/mL.

Usually inhibition stands for the relative decrease from the control value, in per cent.
